From US20120121540A1 (priority 2007, published 2012)

Assay: HCV replicon assay (luciferase reporter, ET cell line)
Type: cell-based
Conditions: Hepatitis C virus, HCV replicon luciferase activity in ET cells
Method in brief: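 EC50 and, via WST-1 cytotoxicity, TC50 were fitted with a Hill-coefficient equation to % inhibition across 10 two-fold dilutions. Compounds at 0.1 nM-[…] with 0.5% DMSO were applied 24 h post-seeding to replicon-bearing ET cells (luc-ubi-neo/NS3-5B, adaptive mutations). Firefly luciferase signal was measured after 48-72 h.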

SMILES | inhibition at 10 µM [%]
O=C(NCc1cccs1)c1nc2c(C(F)(F)F)cc(-c3ccccc3)nn2c1Br [Compound 250, 3-Bromo-6-phenyl-8-trifluoromethyl-imidazo[1,2-b]pyridazine-2-carboxylic Acid(thiophen-2-ylmethyl)-amide] | 92
O=C(c1cn2cc(-c3ccoc3)cc(C(F)(F)F)c2n1)N1CCC(c2ccc(F)cc2)C1 (centres unmarked) [Compound 251, [3-(4-Fluoro-phenyl)-pyrrolidin-1-yl]-(6-furan-3-yl-8-trifluoromethyl-imidazo[1,2-a]pyridin-2-yl)-methanone] | 93.4
O=C(c1nc2c(C(F)(F)F)cc(-c3ccccc3)nn2c1Br)N1CCC(c2ccc(F)cc2)C1 (centres unmarked) [Compound 252, (3-Bromo-6-phenyl-8-trifluoromethyl-imidazo[1,2-b]pyridazin-2-yl)-[3-(4-fluoro-phenyl)-pyrrolidin-1-yl]-methanone] | 84.8
O=C(c1nc2c(C(F)(F)F)cc(-c3ccoc3)cn2c1Br)N1CCC(c2ccc(F)cc2)C1 (centres unmarked) [Compound 253, (3-Bromo-6-furan-3-yl-8-trifluoromethyl-imidazo[1,2-a]pyridin-2-yl)-[3-(4-fluoro-phenyl)-pyrrolidin-1-yl]-methanone] | 98
O=C(c1nc2c(C(F)(F)F)cc(-c3ccoc3)cn2c1-c1ccoc1)N1CCC(c2ccc(F)cc2)C1 (centres unmarked) [Compound 254, (3,6-Di-furan-3-yl-8-trifluoromethyl-imidazo[1,2-a]pyridin-2-yl)-[3-(4-fluoro-phenyl)-pyrrolidin-1-yl]-methanone] | 46.9
O=C(c1cn2cc(-c3cn[nH]c3)cc(C(F)(F)F)c2n1)N1CCC(c2ccc(F)cc2)C1 (centres unmarked) [Compound 255, [3-(4-Fluoro-phenyl)-pyrrolidin-1-yl]-[6-(1H-pyrazol-4-yl)-8-trifluoromethyl-imidazo[1,2-a]pyridin-2-yl]-methanone] | 76.6
O=C(c1nc2c(C(F)(F)F)cc(-c3cn[nH]c3)cn2c1Br)N1CCC(c2ccc(F)cc2)C1 (centres unmarked) [Compound 256, [3-Bromo-6-(1H-pyrazol-4-yl)-8-trifluoromethyl-imidazo[1,2-a]pyridin-2-yl]-[3-(4-fluoro-phenyl)-pyrrolidin-1-yl]-methanone] | 92
O=C(c1nc2c(C(F)(F)F)cc(-c3cn[nH]c3)cn2c1Cl)N1CCC(c2ccccc2F)C1 (centres unmarked) [Compound 257, [3-Chloro-6-(1H-pyrazol-4-yl)-8-trifluoromethyl-imidazo[1,2-a]pyridin-2-yl]-[3-(2-fluoro-phenyl)-pyrrolidin-1-yl]-methanone] | 92.2
O=C(c1nc2c(C(F)(F)F)cc(-c3cn[nH]c3)cn2c1Cl)N1CCC(c2cccc(F)c2)C1 (centres unmarked) [Compound 258, [3-Chloro-6-(1H-pyrazol-4-yl)-8-trifluoromethyl-imidazo[1,2-a]pyridin-2-yl]-[3-(3-fluoro-phenyl)-pyrrolidin-1-yl]-methanone] | 91
O=C(c1nc2c(C(F)(F)F)cc(-c3ccoc3)cn2c1Cl)N1CC=C(c2ccccc2)C1 [Compound 259, (3-chloro-6-furan-3-yl-8-trifluoromethyl-imidazo[1,2-a]pyridin-2-yl)-(3-phenyl-2,5-dihydro-pyrrol-1-yl)-methanone] | 99.4
O=C(c1nc2c(C(F)(F)F)cc(-c3ccoc3)cn2c1Cl)N1CCC(c2ccccc2)C1 (centres unmarked) [Compound 260, (3-Chloro-6-furan-3-yl-8-trifluoromethyl-imidazo[1,2-a]pyridin-2-yl)-(3-phenyl-pyrrolidin-1-yl)-methanone] | 96
O=C(c1nc2c(C(F)(F)F)cc(-c3ccoc3)cn2c1Cl)N1CC[C@H](c2ccccc2)C1 [Compound 261, (3-Chloro-6-furan-3-yl-8-trifluoromethyl-imidazo[1,2-a]pyridin-2-yl)-(3-(R)-phenyl-pyrrolidin-1-yl)-methanone] | 87.9
O=C(c1nc2c(C(F)(F)F)cc(-c3ccoc3)cn2c1Cl)N1CC[C@@H](c2ccccc2)C1 [Compound 262, (3-Chloro-6-furan-3-yl-8-trifluoromethyl-imidazo[1,2-a]pyridin-2-yl)-(3-(S)-phenyl-pyrrolidin-1-yl)-methanone] | 97.3
O=C(NCc1cccs1)c1nc2c(-c3ccoc3)cc(-c3ccccc3)cn2c1Cl [Compound 263] | 60.3
CCN(CC)C(=O)/C=C/c1cc(-c2ccccc2)cn2c(Cl)c(C(=O)NCc3cccs3)nc12 [Compound 268, 3-Chloro-8-((E/Z)-2-diethylcarbamoyl-vinyl)-6-phenyl-imidazo[1,2-a]pyridine-2-carboxylic Acid (thiophen-2-ylmethyl)-amide] | 40.2
O=C(c1nc2c(C(F)(F)F)cc(-c3ccoc3)cn2c1Cl)N1CCC(c2ccccc2F)CC1 [Compound 275, (3-chloro-6-furan-3-yl-8-trifluoromethyl-imidazo[1,2-a]pyridine-2-yl)-[4-(2-fluoro-phenyl)-piperidin-1-yl]-methanone] | 97.8

SMILES | inhibition at 10 µM [%]
O=C(c1nc2c(C(F)(F)F)cc(-c3ccoc3)cn2c1Cl)N1CCC(c2cccc(F)c2)CC1 [Compound 276, (3-Chloro-6-furan-3-yl-8-trifluoromethyl-imidazo[1,2-a]pyridine-2-yl)-[4-(3-fluoro-phenyl)-piperidin-1-yl]-methanone] | 74
O=C(c1nc2c(C(F)(F)F)cc(-c3ccoc3)cn2c1Cl)N1CCC(c2ccc(F)cc2)CC1 [Compound 277, (3-Chloro-6-furan-3-yl-8-trifluoromethyl-imidazo[1,2-a]pyridine-2-yl)-[4-(4-fluoro-phenyl)-piperidin-1-yl]-methanone] | 71.7
O=C(NCc1cccs1)c1nc2c(C(F)(F)F)cc(-c3cc[nH]c3)cn2c1Cl [Compound 279, 3-Chloro-6-(1H-pyrrol-3-yl)-8-trifluoromethyl-imidazo[1,2-a]pyridine-2-carboxylic Acid(thiophen-2-ylmethyl)-amide] | 95.8
Cn1cc(-c2cc(C(F)(F)F)c3nc(C(=O)NCc4cccs4)c(Cl)n3c2)cn1 [Compound 280, 3-Chloro-6-(1-methyl-1H-pyrazol-4-yl)-8-trifluoromethyl-imidazo[1,2-a]pyridine-2-carboxylic Acid (thiophen-2-ylmethyl)-amide] | 83.9
CC(C)(C)OC(=O)n1cccc1-c1cc(C(F)(F)F)c2nc(C(=O)NCc3cccs3)c(Cl)n2c1 [Compound 281, 2-{3-Chloro-2-[(thiophen-2-ylmethyl)-carbamoyl]-8-trifluoromethyl-imidazo[1,2-a]pyridin-6-yl}-pyrrole-1-carboxylic Acid Tert-butyl Ester] | 69.3
O=C(NCc1cccs1)c1nc2c(C(F)(F)F)cc(C3=CCCCC3)cn2c1Cl [Compound 282, 3-Chloro-6-cyclohex-1-enyl-8-trifluoromethyl-imidazo[1,2-a]pyridine-2-carboxylic acid (thiophen-2-ylmethyl)-amide] | 97.6
O=C(NCc1cccs1)c1nc2c(C(F)(F)F)cc(-c3ccn[nH]3)cn2c1Cl [Compound 283, 3-Chloro-6-(2H-pyrazol-3-yl)-8-trifluoromethyl-imidazo[1,2-a]pyridine-2-carboxylic Acid(thiophen-2-ylmethyl)-amide] | 87.5
O=C(NCc1cccs1)c1nc2c(C(F)(F)F)cc(C3=CCCCO3)cn2c1Cl [Compound 284, 3-Chloro-6-(5,6-dihydro-4H-pyran-2-yl)-8-trifluoromethyl-imidazo[1,2-a]pyridine-2-carboxylic Acid (thiophen-2-ylmethyl)-amide] | 98.8
O=C(NCc1cccs1)c1nc2c(C(F)(F)F)cc(-c3cnn(Cc4ccccc4)c3)cn2c1Cl [Compound 285, 6-(1-Benzyl-1H-pyrazol-4-yl)-3-chloro-8-trifluoromethyl-imidazo[1,2-a]pyridine-2-carboxylic Acid (thiophen-2-ylmethyl)-amide] | 71.8
CN(C)c1cccc(-c2cc(C(F)(F)F)c3nc(C(=O)NCc4cccs4)c(Cl)n3c2)c1 [Compound 286, 3-Chloro-6-(3-dimethylamino-phenyl)-8-trifluoromethyl-imidazo[1,2-a]pyridine-2-carboxylic Acid (thiophen-2-ylmethyl)-amide] | 57.9
O=C(NCc1cccs1)c1nc2c(C(F)(F)F)cc(/C=C/c3ccccc3)cn2c1Cl [Compound 287, 3-Chloro-6-styryl-8-trifluoromethyl-imidazo[1,2-a]pyridine-2-carboxylic Acid (thiophen-2-ylmethyl)-amide] | 52.3
O=C(NCc1cccs1)c1nc2c(C(F)(F)F)cc(-c3cnoc3)cn2c1Cl [Compound 288, 3-Chloro-6-isoxazol-4-yl-8-trifluoromethyl-imidazo[1,2-a]pyridine-2-carboxylic Acid(thiophen-2-ylmethyl)-amide] | 85
Cc1nc(C)c(-c2cc(C(F)(F)F)c3nc(C(=O)NCc4cccs4)c(Cl)n3c2)s1 [Compound 289, 3-Chloro-6-(2,4-dimethyl-thiazol-5-yl)-8-trifluoromethyl-imidazo[1,2-a]pyridine-2-carboxylic Acid (thiophen-2-ylmethyl)-amide] | 30.3
O=C(NCc1cccs1)c1nc2c(C(F)(F)F)cc(-c3cn[nH]c3)cn2c1Cl [Compound 290, 3-Chloro-6-(1H-pyrazol-4-yl)-8-trifluoromethyl-imidazo[1,2-a]pyridine-2-carboxylic Acid(thiophen-2-ylmethyl)-amide] | 93.9
O=C(NCc1cccs1)c1nc2c(C(F)(F)F)cc(-c3ccc[nH]3)cn2c1Cl [Compound 293, 3-Chloro-6-(1H-pyrrol-2-yl)-8-trifluoromethyl-imidazo[1,2-a]pyridine-2-carboxylic Acid(thiophen-2-ylmethyl)-amide] | 87.2
O=C(NCc1cccs1)c1nc2c(C(F)(F)F)cc(C#Cc3ccccc3)cn2c1Cl [Compound 294, 3-Chloro-6-phenylethynyl-8-trifluoromethyl-imidazo[1,2-a]pyridine-2-carboxylic Acid(thiophen-2-ylmethyl)-amide] | 41.5
